This is an account of results in BindingDB's records for doi:10.1021/jm980035y (Cephalon, 1998).

The term Ki denotes the dissociation constant of the complex between target and ligand, obtained from inhibition or displacement. High values mean lower affinity, low ones higher affinity.

Square brackets hold non-standard residues; d marks the D form. Peptide text beside a SMILES is read from it. * marks the point of attachment. Bn = c1ccc(C*)cc1; Ms = CS(=O)(=O)*

The assay deals with Calpain-2 catalytic subunit (Sus scrofa). As to the kind of experiment: Inhibitory activity against Calpain-II receptor in porcine kidney.

For the compound `CS(=O)(=O)N[C@H](CSCc1ccccc1)C(=O)N[C@H](C=O)Cc1ccccc1` [(S)-N-((S)-1-Benzyl-2-oxo-ethyl)-3-benzylsulfanyl-2-methanesulfonylamino-propionamide] (Ms-[dC](Bn)-Phe-aldehyde), affinity was put at a Ki of 7 nM.
The compound `CS(=O)(=O)N[C@H](COCc1ccccc1)C(=O)N[C@H](C=O)Cc1ccc(OCc2ccccc2)cc1` [(R)-3-Benzyloxy-N-[(S)-1-(4-benzyloxy-benzyl)-2-oxo-ethyl]-2-methanesulfonylamino-propionamide] (Ms-[dS](Bn)-Tyr(Bn)-aldehyde) had a Ki of 5 nM.
`CS(=O)(=O)N[C@H](COCc1ccccc1)C(=O)N[C@H](C=O)CCCCNS(=O)(=O)c1ccccc1` [(R)-N-((S)-5-Benzenesulfonylamino-1-formyl-pentyl)-3-benzyloxy-2-methanesulfonylamino-propionamide]: the Ki is 17 nM.
The compound `CC(OCc1ccccc1)[C@@H](NS(C)(=O)=O)C(=O)N[C@H](C=O)Cc1ccccc1` (stereo partly drawn) [(R)-N-((S)-1-Benzyl-2-oxo-ethyl)-3-benzyloxy-2-methanesulfonylamino-butyramide] displayed a Ki of 7 nM.
